These results are taken from ChEMBL document CHEMBL4043153, “Lead selection of antiparasitic compounds from a focused library of benzenesulfonyl derivatives of heterocycles” (Bioorg Med Chem Lett, 2017).

Calls of active or inactive are those of the source. The rule behind the calls is not given here.

For data set [1], the system named is Leishmania donovani. Description: Antiparasitic activity against Leishmania donovani MHOM-ET-67/L82 axenic amastigotes assessed as growth inhibition at 0.8 ug/ml after 72 hrs by resazurin dye-based fluorometric analysis relative to control. Particulars: MHOM-ET-67/L82, 72 h, read-out: GI. The format is functional.
Data set [2] relates to Leishmania donovani. Description: Antiparasitic activity against Leishmania donovani MHOM-ET-67/L82 axenic amastigotes assessed as growth inhibition at 4.8 ug/ml after 72 hrs by resazurin dye-based fluorometric analysis relative to control. The data set is classed as functional. Particulars: MHOM-ET-67/L82, 72 h, read-out: GI.
Data set [3] relates to Trypanosoma cruzi. Description: Antiparasitic activity against Trypanosoma cruzi Tulahuen C4 intracellular amastigotes infected in rat L6 cells assessed as growth inhibition at 0.8 ug/ml after 96 hrs by CPRG/Nonidet reagent based photometric analysis relative to control. The data set is classed as functional. Conditions: Tulahuen C4, L6, 96 h, read-out: GI.
Data set [4] deals with Trypanosoma cruzi. Kind of data set: Antiparasitic activity against Trypanosoma cruzi Tulahuen C4 intracellular amastigotes infected in rat L6 cells assessed as growth inhibition at 4.8 ug/ml after 96 hrs by CPRG/Nonidet reagent based photometric analysis relative to control. The data set is classed as functional. Particulars: Tulahuen C4, L6, 96 h, read-out: GI.
Data set [5] has as its system Plasmodium falciparum. Kind of data set: Antiparasitic activity against intraerythrocytic form of chloroquine/pyrimethamine-resistant Plasmodium falciparum K1 infected in human RBC assessed as growth inhibition at 0.8 ug/ml preincubated for 48 hrs followed by [3H]-hypoxanthine addition measured after 24 hrs by liquid scintillation counting analysis relative to control. The format is functional. Particulars: read-out: GI.

In data set [6] the test system is Plasmodium falciparum. Description: Antiparasitic activity against intraerythrocytic form of chloroquine/pyrimethamine-resistant Plasmodium falciparum K1 infected in human RBC assessed as growth inhibition at 4.8 ug/ml preincubated for 48 hrs followed by [3H]-hypoxanthine addition measured after 24 hrs by liquid scintillation counting analysis relative to control. The format is functional. Conditions: read-out: GI.

Data set [7] deals with Trypanosoma brucei rhodesiense. Kind of data set: Antiparasitic activity against Trypanosoma brucei rhodesiense STIB 900 trypomastigote bloodstream form assessed as growth inhibition at 0.8 ug/ml after 72 hrs by resazurin dye-based fluorometric analysis relative to control. The data set is classed as functional. Particulars: STIB 900, 72 h, read-out: GI.
Data set [8] deals with Trypanosoma brucei rhodesiense. Kind of data set: Antiparasitic activity against Trypanosoma brucei rhodesiense STIB 900 trypomastigote bloodstream form assessed as growth inhibition at 4.8 ug/ml after 72 hrs by resazurin dye-based fluorometric analysis relative to control. The format is functional. Particulars: STIB 900, 72 h, read-out: GI.
Data set [9] concerns Trypanosoma cruzi. Description: Antiparasitic activity against Trypanosoma cruzi Tulahuen C4 intracellular amastigotes infected in rat L6 cells after 96 hrs by CPRG/Nonidet reagent based photometric analysis. The data set is classed as functional, cell-based. Particulars: Tulahuen C4, L6, 96 h.
For data set [10], the system named is L6. Kind of data set: Cytotoxicity against rat L6 cells assessed as cell viability after 72 hrs by Alamar blue assay. The format is cell-based. Conditions: L6, 72 h.
Data set [11] can be described thus: Selectivity index, ratio of IC50 for rat L6 cells to IC50 for Trypanosoma cruzi Tulahuen C4 intracellular amastigotes infected in rat L6 cells. The format is toxicity, cell-based. Particulars: read-out: Ratio IC50.
Data set [12] has as its system Plasmodium falciparum. Kind of data set: Antiparasitic activity against intraerythrocytic form of chloroquine/pyrimethamine-resistant Plasmodium falciparum K1 infected in human RBC preincubated for 48 hrs followed by [3H]-hypoxanthine addition measured after 24 hrs by liquid scintillation counting analysis. The format is functional.

`COc1ccc(S(=O)(=O)N2c3ccccc3CC2C)cc1` (stereo not given): the inhibition of growth at 0.8 µg/mL stood at 2.9% in [1], 1.8% in [3], 5.3% in data set [5] and 1.2% in data set [7]. Moreover, the inhibition of growth at 4.8 µg/mL in data set [2] stood at 35%; in data set [4], 100%; in data set [6], 49.3%; in [8], 4.4%. Further, the half-maximal inhibitory concentration (IC50) is 9.46 µM in data set [9] and 440 nM in [10]. Also, the selectivity ratio in data set [11] was 0.04.

Turning to `O=S(=O)(c1ccccc1)n1nnc2ccccc21`, the result in [12] was Active.

Consider `O=S(=O)(c1ccccc1)n1ccc2ccccc21`, for which the result in [12] was Active.

`O=[N+]([O-])c1ccc(S(=O)(=O)n2ccc3ccccc32)cc1`: the inhibition of growth at 0.8 µg/mL was determined as 24.2% in data set [1], 18.3% in [3], 2.5% in data set [5] and 8.6% in [7]. In addition, the inhibition of growth at 4.8 µg/mL was 77.6% in data set [2], 75% in [4], 60.4% in data set [6] and 29.3% in data set [8]. In addition, the result in data set [12] was Active.

`O=[N+]([O-])c1ccc(S(=O)(=O)n2nnc3ccccc32)cc1`: the result in data set [12] was Active.

As to `CC1Cc2ccccc2N1S(=O)(=O)c1ccccc1` (stereo not given), the inhibition of growth at 0.8 µg/mL worked out at 12.5% in [1], 0% in data set [3], 13.2% in data set [5] and 4.6% in data set [7]. In addition, the inhibition of growth at 4.8 µg/mL in [2] was determined as 27.9%; in data set [4] it was 5.2%; in data set [6], 46.4%; in data set [8], 0%. Further, the result in data set [12] was Active.

Regarding `O=S(=O)(c1ccccc1)N1CCc2ccccc21`, the inhibition of growth at 0.8 µg/mL in data set [1] was determined as 7.4%; in [3] it was 0%; in [5], 2.9%; in data set [7] it was 0%. The inhibition of growth at 4.8 µg/mL is 45.3% in [2], 10% in data set [4], 29.1% in data set [6] and 0% in data set [8]. In addition, in [12], the outcome was Active.

Consider `CC1Cc2ccccc2N1S(=O)(=O)c1cccc([N+](=O)[O-])c1` (stereo not given), for which the inhibition of growth at 0.8 µg/mL in data set [1] is 26%; in [3] it was 2.5%; in [5], 14.9%; in [7] it was 7%. For the same compound, the inhibition of growth at 4.8 µg/mL is 66.2% in data set [2], 31.6% in data set [4], 62.6% in data set [6] and 12.6% in data set [8].

Take `CC(=O)c1ccc(S(=O)(=O)N2CCc3ccccc3C2)cc1`: the inhibition of growth at 0.8 µg/mL in [1] is 20.1%; in [3], 0%; in [5], 0.3%; in data set [7], 0%. The inhibition of growth at 4.8 µg/mL was 46.1% in data set [2], 13.4% in [4], 9.7% in data set [6] and 0% in [8].

Regarding `O=S(=O)(c1ccc(F)cc1)N1CCc2ccccc21`, the inhibition of growth at 0.8 µg/mL in [1] is 11%; in data set [3] it was 0%; in [5] it was 1.5%; in data set [7], 12.6%. Also, the inhibition of growth at 4.8 µg/mL in [2] worked out at 62.7%; in data set [4], 0.2%; in data set [6], 28.2%; in data set [8], 19.2%.
